Measurements reported in US20220280476A1, “KCNT1 INHIBITORS AND METHODS OF USE” (Praxis Precision Medicines, Inc., priority 2019, published 2022).

molecular target: T1, KCNT1 (KNa1.1, Slack) (Homo sapiens, UniProt Q5JUK3); assay: KCNT1-WT-Basal patch clamp assay (SyncroPatch 384PE, HEK-TREX inducible cell line); format: cell-based; conditions: tetracycline inducible HEK-TREX cells; perforated patch; holding -80 mV, 100 ms step to 0 mV; room temperature; read-out: KCNT1 WB IC50
T1 construct: expressed in transfected cells; host or cells: HEK-TREX (tetracycline-inducible HEK cell line)
T1 sequence (Q5JUK3 1-1230): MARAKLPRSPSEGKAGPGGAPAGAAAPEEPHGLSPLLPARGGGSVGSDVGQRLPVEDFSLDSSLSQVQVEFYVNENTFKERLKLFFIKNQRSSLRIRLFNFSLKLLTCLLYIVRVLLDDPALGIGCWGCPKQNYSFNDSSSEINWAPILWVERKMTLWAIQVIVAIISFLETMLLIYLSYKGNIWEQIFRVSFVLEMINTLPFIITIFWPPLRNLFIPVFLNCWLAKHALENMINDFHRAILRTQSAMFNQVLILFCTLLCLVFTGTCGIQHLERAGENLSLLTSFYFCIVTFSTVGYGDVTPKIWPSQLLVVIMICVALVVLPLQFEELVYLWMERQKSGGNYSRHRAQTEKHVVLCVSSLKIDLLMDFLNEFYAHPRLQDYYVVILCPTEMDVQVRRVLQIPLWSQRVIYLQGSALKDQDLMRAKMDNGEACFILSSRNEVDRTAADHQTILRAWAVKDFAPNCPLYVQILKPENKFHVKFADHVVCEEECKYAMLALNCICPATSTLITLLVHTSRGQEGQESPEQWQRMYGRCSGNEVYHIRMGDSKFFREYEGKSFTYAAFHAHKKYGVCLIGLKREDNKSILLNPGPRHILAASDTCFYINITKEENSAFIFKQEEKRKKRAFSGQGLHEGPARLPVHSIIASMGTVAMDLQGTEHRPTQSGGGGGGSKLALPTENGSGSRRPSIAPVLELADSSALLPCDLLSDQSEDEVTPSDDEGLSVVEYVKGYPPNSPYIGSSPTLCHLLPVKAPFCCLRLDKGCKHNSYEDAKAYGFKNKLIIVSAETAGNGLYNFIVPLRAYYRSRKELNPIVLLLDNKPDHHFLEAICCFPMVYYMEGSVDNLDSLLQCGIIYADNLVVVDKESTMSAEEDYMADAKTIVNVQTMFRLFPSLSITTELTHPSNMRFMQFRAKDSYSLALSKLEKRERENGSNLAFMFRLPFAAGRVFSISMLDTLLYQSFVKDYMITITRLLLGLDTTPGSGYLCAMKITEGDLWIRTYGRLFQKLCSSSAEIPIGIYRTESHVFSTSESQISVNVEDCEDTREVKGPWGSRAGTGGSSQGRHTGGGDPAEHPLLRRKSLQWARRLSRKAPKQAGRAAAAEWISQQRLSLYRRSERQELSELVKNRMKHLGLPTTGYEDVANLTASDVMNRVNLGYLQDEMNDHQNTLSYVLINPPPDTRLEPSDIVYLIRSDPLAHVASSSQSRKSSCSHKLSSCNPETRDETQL
Method: KCNT1-WT-Basal—Patch Clamp Assay
Inhibition of KCNT1 (KNa1.1, Slack) was evaluated using a tetracycline inducible cell line (HEK-TREX). Currents were recorded using the SyncroPatch 384PE automated, patch clamp system. Pulse generation and data collection were performed with PatchController384 V1.3.0 and DataController384 V1.2.1 (Nanion Technologies). The access resistance and apparent membrane capacitance were estimated using built-in protocols. Current were recorded in perforated patch mode (10 μM escin) from a population of cells. The cells were lifted, triturated, and resuspended at 800,000 cells/ml. The cells were allowed to recover in the cell hotel prior to experimentation. Currents were recorded at room temperature. The external solution contained the following (in mM): NaCl 105, NMDG 40, KCl 4, MgCl2 1, CaCl2 5 and HEPES 10 (pH=7.4, Osmolarity ˜300 mOsm). The extracellular solution was used as the wash, reference and compound delivery solution. The internal solution contained the following (in mM): NaCl 70, KF 70, KCl 10, EGTA 5, HEPES 5 and Escin 0.01 (pH=7.2, Osmolarity ˜295 mOsm). Escin is made at a 5 mM stock in water, aliquoted, and stored at −20° C. The compound plate was created at 2× concentrated in the extracellular solution. The compound was diluted to 1:2 when added to the recording well. The amount of DMSO in the extracellular solution was held constant at the level used for the highest tested concentration. A holding potential of −80 mV with a 100 ms step to 0 mV was used. Mean current was measured during the step to 0 mV. […] The average mean current from 3 sweeps was calculated and the % inhibition of each compound was calculated. The % Inhibition as a function of the compound concentration was fit with a Hill equation to derive IC50, slope, min and max parameters. If KCNT1 inhibition was less than 50% at the highest tested concentration or if an IC50 could not be calculated, then a percent inhibition was reported in place of the IC50.

| IC50 [nM] | SMILES |
| --- | --- |
| 1000 to 20000 | O=C(N[C@@H]1CCc2cc(Cl)ccc21)c1c(O)cccc1F [Compound III-8] |
| ≤ 1000 | O=C(N[C@@H]1CCc2cc(Cl)ccc21)c1cccc(F)c1O [Compound III-9] |
| ≤ 1000 | O=C(N[C@@H]1CCc2cc(Cl)ccc21)c1cccc(C(F)(F)F)c1O [Compound III-10] |
| ≤ 1000 | O=C(N[C@@H]1CCc2cc(Cl)ccc21)c1cc(Cl)ccc1O [Compound III-11] |
| ≤ 1000 | Cc1ccc(O)c(C(=O)N[C@@H]2CCc3cc(Cl)ccc32)c1 [Compound III-12] |
| 1000 to 20000 | COc1cccc(O)c1C(=O)N[C@@H]1CCc2cc(Cl)ccc21 [Compound III-13] |
| ≤ 1000 | COc1cccc(C(=O)N[C@@H]2CCc3cc(Cl)ccc32)c1O [Compound III-14] |
| ≤ 1000 | Cc1cccc(C(=O)N[C@@H]2CCc3cc(Cl)ccc32)c1O [Compound III-15] |
| ≤ 1000 | CC(=O)Nc1cccc(C(=O)N[C@@H]2CCc3cc(Cl)ccc32)c1O [Compound III-16] |
| ≥ 20000 | Cc1cccc(O)c1C(=O)N[C@@H]1CCc2cc(Cl)ccc21 [Compound III-17] |

More lines, now with the values behind:

| SMILES | IC50 [nM] |
| --- | --- |
| CS(=O)(=O)c1ccc(C(=O)N[C@@H]2CCc3cc(Cl)ccc32)cc1F [Compound II-35] | ≤ 1000 |
| CS(=O)(=O)c1ccc(C(=O)N[C@@H]2CCc3cc(Cl)ccc32)c(F)c1 [Compound II-36] | 1000 to 20000 |
| NS(=O)(=O)Nc1ccc(C(=O)N[C@@H]2CCc3cc(Cl)ccc32)cc1 [Compound II-37] | 1000 to 20000 |
| O=C(N[C@@H]1CCc2cc(Cl)ccc21)c1ccc(S(=O)(=O)C(F)(F)F)cc1 [Compound II-38] | ≤ 1000 |
| O=C(N[C@@H]1CCc2cc(Cl)ccc21)c1ccc(S(=O)(=O)C2CC2)cc1 [Compound II-39] | ≤ 1000 |
| COCCS(=O)(=O)c1ccc(C(=O)N[C@@H]2CCc3cc(Cl)ccc32)cc1 [Compound II-40] | 1000 to 20000 |
| O=C(N[C@@H]1CCc2cc(Cl)ccc21)c1ccc(S(=O)(=O)C(F)F)cc1 [Compound II-42] | ≤ 1000 |
| COCCN(c1ccc(C(=O)N[C@@H]2CCc3cc(Cl)ccc32)cc1)S(C)(=O)=O [Compound II-43] | 1000 to 20000 |
| CN(C)CCN(c1ccc(C(=O)N[C@@H]2CCc3cc(Cl)ccc32)cc1)S(C)(=O)=O [Compound II-44] | 1000 to 20000 |
| CS(=O)(=O)N(CC(F)(F)F)c1ccc(C(=O)N[C@@H]2CCc3cc(Cl)ccc32)cc1 [Compound II-45] | 1000 to 20000 |
| CS(=O)(=O)N(CCOC(F)(F)F)c1ccc(C(=O)N[C@@H]2CCc3cc(Cl)ccc32)cc1 [Compound II-46] | ≥ 20000 |
| CS(=O)(=O)N(CCO)c1ccc(C(=O)N[C@@H]2CCc3cc(Cl)ccc32)cc1 [Compound II-47] | 1000 to 20000 |
| Cc1cc(C(=O)N[C@@H]2CCc3cc(Cl)ccc32)ccc1S(C)(=O)=O [Compound II-48] | 1000 to 20000 |
| CN(C)C(=O)CN(c1ccc(C(=O)N[C@@H]2CCc3cc(Cl)ccc32)cc1)S(C)(=O)=O [Compound II-49] | 1000 to 20000 |
| CS(=O)(=O)N(c1ccc(C(=O)N[C@@H]2CCc3cc(Cl)ccc32)cc1)C1COC1 [Compound II-50] | 1000 to 20000 |
| O=C(N[C@@H]1CCc2cc(Cl)ccc21)c1ccc(S(=O)(=O)CC(F)F)cc1 [Compound II-51] | 1000 to 20000 |
| O=C(N[C@@H]1CCc2cc(Cl)ccc21)c1ccccc1O [Compound III-3] | ≤ 1000 |
| O=C(N[C@@H]1CCc2cc(Cl)ccc21)c1ccc(F)cc1O [Compound III-4] | ≤ 1000 |
| CS(=O)(=O)Nc1ccc(C(=O)N[C@@H]2CCc3cc(Cl)ccc32)c(O)c1 [Compound III-5] | ≤ 1000 |
| O=C(N[C@@H]1CCc2cc(Cl)ccc21)c1cc(F)ccc1O [Compound III-6] | ≤ 1000 |
| O=C(N[C@@H]1CCc2cc(Cl)ccc21)c1cccc(Cl)c1O [Compound III-7] | ≤ 1000 |
